Read-outs that look alike come from different tables or passages of the source. Marks after values point to notes of the source that are not given here.
Assays:
rats = conditions: pregnant rats treated with folic acid concomitantly to ethanol administration; cited from earlier work
[1] = test system: embryonic hippocampal cultures; conditions: against 400-2400 mg/dl of ethanol treatment; cited from earlier work
[2] = test system: Pax6, Otx2, Sox2, Sox3, NCAM, Vent1; assay: RT-PCR of neural markers (animal caps or embryos); format: cell-based, Xenopus laevis
Excerpt: RT-PCR Animal caps were dissected from embryos at stage 8.5 and cultured in 67% Leibovitz's L-15 medium, pH 7.5 in the presence or absence of varied concentration of alcohol until stage 22. Total RNA was extracted from cultured animal caps with Trizol reagent (Invitrogen). Primer sets and PCR conditions for NCAM and Pax6 have been described in our previous reports (Peng, Neurobiol. Dis., 2004; Peng, J. Mol. Biol., 2004). PCR products were subject to electrophoresis on TBE gel and visualized by ethidium bromide staining.
Animal cap explant assay. […] Total RNA was extracted from animal caps or whole embryos using TRIZOL reagent (Invitrogen). The total RNA was reverse transcribed using the Superscript system (Invitrogen), and the first strand cDNA of the target gene amplified by PCR.
The Xenopus animal cap is composed of pluripotent cells that can be induced to form neural, mesodermal, or epidermal tissue, and is a useful tissue to assess the activity of various factors on neural development. Animal caps were treated with varied concentrations of alcohol as indicated.

Xenopus laevis embryos = conditions: for Alive / dead: 15 embryos; for Body length / Eye distance: mean ± SD
Description: Morphological measurements of microcephaly and growth retardation.
Vitamin C treatment. Embryos at stage 13 (initial neural plate stage) were collected and divided into groups, each containing 15-20 embryos and incubated in a plastic petri dish containing MMR medium as stated above. Vitamin C, having a concentration of 100 μM, was added either concomitantly, 2 hours before, or 2 hours after the initiation of a 12-hour alcohol exposure. The tadpoles were fixed and measurements were made as stated above.

[3] = test system: Xenopus laevis tadpole brain; assay: Histological analysis of brain injury (coronal brain sections of tadpoles)
Excerpt: Histological analysis of brain injury. Embryos were fixed in 2% paraformaldehyde, dehydrated, embedded in paraffin. The embryos were sectioned coronally through the head and stained with hematoxylin and eosin.
The EF-1α transcript was detected as an internal control for equal RNA load.

[4] = test system: alcohol-induced ROS production; assay: ROS measurement (hydrogen peroxide level in embryos); format: in vivo, Xenopus laevis; conditions: vitamin C pretreatment 2 hours before 0.6% ethanol
Description: (A) Embryos were pretreated with or without vitamin C two hours before alcohol treatment (0.6%, 12 h, from stage 13 to 22). The embryos were harvested at stage 22 and the hydrogen peroxide level measured by the colorimetric quantitation of hydrogen peroxide method (total hydroperoxides), according to the protocols provided by the manufacturer (BIOXYTECH H202-560 kit, OXIS International, Inc., USA); (B) The NF-κB mediated transcriptional activity was measured using NF-κB luciferase reporter plasmid (pLuc-NF-κB) containing IL-6 promoter region with four repeats of NF-κB binding sites.
ROS measurement. […] At the end of the experiment, embryos were harvested and total ROS content was determined by the calorimetric quantitation of hydrogen peroxide method (total hydroperoxides), following protocols provided by the manufacturer (BIOXYTECH H202-560 kit, OXIS International, Inc. USA).

[5] = 100 μM VitC 2 hours after start of 12-hour 0.6% EtOH (Post-VitC)
[6] = 100 μM VitC 2 hours before 12-hour 0.6% EtOH (Pre-VitC)
[7] = 100 μM VitC concomitantly with 12-hour 0.6% EtOH

Compound: Nc1nc2ncc(CNc3ccc(C(=O)N[C@@H](CCC(=O)O)C(=O)O)cc3)nc2c(=O)[nH]1 [folic acid]
- amount of ethanol-mediated oxidative stress (rats): mitigated

Compound: Vitamin E
- protection of embryonic hippocampal cultures [1]: protected

Compound: OO [H2O2, hydrogen peroxide]
- expression of Pax6, Otx2, Sox2, Sox3, and NCAM ([2]; animal caps treated with 100 M of H2O2 instead of alcohol): reduced the expression

Compound: CC1=C(/C=C/C(C)=C/C=C/C(C)=C/C=C/C=C(C)/C=C/C=C(C)/C=C/C2=C(C)CCCC2(C)C)C(C)(C)CCC1 [β-carotene]
- protection of embryonic hippocampal cultures [1]: protected

Compound: O=C1O[C@H]([C@@H](O)CO)C(O)=C1O [VitC, ascorbic acid]
- Alive (Xenopus laevis embryos; [5]): 14
- dead (Xenopus laevis embryos; [5]): 1
- Body length (Xenopus laevis embryos; [5]): 9.60 ± 013^b mm
- Eye distance (Xenopus laevis embryos; [5]): 1.82 ± 004^b mm
- Alive (Xenopus laevis embryos; [6]): 14
- dead (Xenopus laevis embryos; [6]): 1
- Body length (Xenopus laevis embryos; [6]): 11.88 ± 006^a mm
- Eye distance (Xenopus laevis embryos; [6]): 2.13 ± 002^a mm
- Alive (Xenopus laevis embryos; [7]): 14
- dead (Xenopus laevis embryos; [7]): 1
- Body length (Xenopus laevis embryos; [7]): 10.19 ± 014^a mm
- Eye distance (Xenopus laevis embryos; [7]): 1.88 ± 003^a,b mm
- dead (Xenopus laevis embryos; VitC alone, 100 μM, no ethanol): 1
- severity of alcohol-induced microencephaly and growth retardation (Xenopus laevis embryos; pretreating embryos with 100 μM vitamin C): significantly reduced the severity
- forebrain areas, histology at stage 45 ([3]; vitamin C 2 hours before addition of alcohol): significant restoration of the forebrain areas
- width of the canal in diencephalon areas ([3]; vitamin C concomitantly with alcohol): could not narrow down the canal
- ethanol-induced hydrogen peroxide level [4]: suppressed
- expression of NCAM and Pax6 (RT-PCR) ([2]; ethanol treated embryos, vitamin C pretreatment): restored significantly

Source: US20060037085A1, “Animal model for fetal alcohol syndrome and methods of treatment” (priority 2004, published 2006)
